The supplement of paper PMC9663587

Experiments:
Paclitaxel = compound: CC(=O)O[C@H]1C(=O)[C@@]2(C)[C@H]([C@H](OC(=O)c3ccccc3)[C@]3(O)C[C@H](OC(=O)[C@H](O)[C@@H](NC(=O)c4ccccc4)c4ccccc4)C(C)=C1C3(C)C)[C@]1(OC(C)=O)CO[C@@H]1C[C@@H]2O [Paclitaxel]
ABT-737 = compound: CN(C)CC[C@H](CSc1ccccc1)Nc1ccc(S(=O)(=O)NC(=O)c2ccc(N3CCN(Cc4ccccc4-c4ccc(Cl)cc4)CC3)cc2)cc1[N+](=O)[O-] [ABT-737]
Luminespib/NVP-AUY922 = compound: CCNC(=O)c1noc(-c2cc(C(C)C)c(O)cc2O)c1-c1ccc(CN2CCOCC2)cc1 [Luminespib/NVP-AUY922]
BSJ-01-175 = compound: CN(C)C/C=C/C(=O)Nc1ccc(O[C@@H]2CCC[C@@H](Nc3ncc(Cl)c(-c4c[nH]c5ccccc45)n3)C2)cc1 [BSJ-01-175]
Flavopiridol [1] = compound: T1, CN1CC[C@H](c2c(O)cc(O)c3c(=O)cc(-c4ccccc4Cl)oc23)[C@H](O)C1 [Flavopiridol]
Olaparib/AZD2281 = compound: O=C(c1cc(Cc2n[nH]c(=O)c3ccccc23)ccc1F)N1CCN(C(=O)C2CC2)CC1 [Olaparib/AZD2281]
Doxorubicin = compound: COc1cccc2c1C(=O)c1c(O)c3c(c(O)c1C2=O)C[C@@](O)(C(=O)CO)C[C@@H]3O[C@H]1C[C@H](N)[C@H](O)[C@H](C)O1 [Doxorubicin]
Ipatasertib/GDC0068 = compound: CC(C)NC[C@@H](C(=O)N1CCN(c2ncnc3c2[C@H](C)C[C@H]3O)CC1)c1ccc(Cl)cc1 [Ipatasertib/GDC0068]
Taselisib/GDC0032 = compound: Cc1nc(-c2cn3c(n2)-c2ccc(-c4cnn(C(C)(C)C(N)=O)c4)cc2OCC3)n(C(C)C)n1 [Taselisib/GDC0032]
BSJ-03-123 = compound: CC(=O)c1c(C)c2cnc(Nc3ccc(N4CCN(CCOCCOCCOCCNC(=O)COc5cccc6c5C(=O)N(C5CCC(=O)NC5=O)C6=O)CC4)cn3)nc2n(C2CCCC2)c1=O [BSJ-03-123]; test: GR value, 72 h; higher = faster growth (1 = untreated, <0 = killing);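 further: breast cancer and non-malignant breast epithelial lines, nine half-log doses, viable cells counted by Hoechst and LIVE/DEAD dye imaging versus time-zero plates and DMSO controls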
YKL-5-124 = compound: C=CC(=O)Nc1ccc(C(=O)Nc2[nH]nc3c2CN(C(=O)N[C@H](CN(C)C)c2ccccc2)C3(C)C)cc1 [YKL-5-124]; test: as above
[2] = compound: CC(=O)c1c(C)c2cnc(Nc3ccc(N4CCNCC4)cn3)nc2n(C2CCCC2)c1=O; test: as above
THZ531 = compound: CN(C)C/C=C/C(=O)Nc1ccc(C(=O)N2CCC[C@@H](Nc3ncc(Cl)c(-c4c[nH]c5ccccc45)n3)C2)cc1 [THZ531]; test: as above
Flavopiridol [3] = compound: T1, Flavopiridol; test: as above
[4] = compound: CCN1CCN(Cc2ccc(Nc3ncc(F)c(-c4cc(F)c5nc(C)n(C(C)C)c5c4)n3)nc2)CC1; test: as above
LEE011/Ribociclib = compound: CN(C)C(=O)c1cc2cnc(Nc3ccc(N4CCNCC4)cn3)nc2n1C1CCCC1 [LEE011/Ribociclib]; test: as above
[5] = compound: CCc1cnn2c(NCc3ccc[n+]([O-])c3)cc(N3CCCC[C@H]3CCO)nc12; test: as above
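Wherever GR50, 72 h is given: breast cancer and non-malignant breast epithelial cell lines, Deep Dye Drop or Dye Drop imaging, nine half-log doses, GR normalized to time-zero plates and DMSO-only controls.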

MGH312
GR50, 72 h (Paclitaxel): 0.00266 µM | GR50, 72 h (ABT-737): 2.19 µM | GR50, 72 h (Luminespib/NVP-AUY922): 0.00379 µM | GR50, 72 h (BSJ-01-175): 0.00657 µM | GR50, 72 h (Flavopiridol [1]): 0.0997 µM | GR50, 72 h (Olaparib/AZD2281): > 10 µM | GR50, 72 h (Doxorubicin): 0.00621 µM | GR50, 72 h (Ipatasertib/GDC0068): 0.037 µM | GR50, 72 h (Taselisib/GDC0032): 0.0386 µM | GR value (BSJ-03-123; 0.001 µM): 1.11 GR | GR value (BSJ-03-123; 0.003162 µM): 1.25 GR | GR value (BSJ-03-123; 0.01 µM): 1.02 GR | GR value (BSJ-03-123; 0.03162 µM): 1.22 GR | GR value (BSJ-03-123; 0.1 µM): 1.12 GR | GR value (BSJ-03-123; 0.3162 µM): 0.909 GR | GR value (BSJ-03-123; 1 µM): 0.827 GR | GR value (BSJ-03-123; 3.162 µM): 0.933 GR | GR value (BSJ-03-123; 10 µM): -0.91 GR | GR value (YKL-5-124; 0.001 µM): 0.624 GR | GR value (YKL-5-124; 0.003162 µM): 0.384 GR | GR value (YKL-5-124; 0.01 µM): 0.182 GR | GR value (YKL-5-124; 0.03162 µM): 0.299 GR | GR value (YKL-5-124; 0.1 µM): 0.104 GR | GR value (YKL-5-124; 0.3162 µM): 0.0051 GR | GR value (YKL-5-124; 1 µM): -0.083 GR | GR value (YKL-5-124; 3.162 µM): -0.264 GR | GR value (YKL-5-124; 10 µM): -0.924 GR | GR value ([2]; 0.0003162 µM): 1.2 GR | GR value ([2]; 0.001 µM): 1.09 GR | GR value ([2]; 0.003162 µM): 1.2 GR | GR value ([2]; 0.01 µM): 1.04 GR | GR value ([2]; 0.03162 µM): 1.09 GR | GR value ([2]; 0.1 µM): 1.21 GR | GR value ([2]; 0.3162 µM): 1.11 GR | GR value ([2]; 1 µM): 1.18 GR | GR value ([2]; 3.162 µM): 1.04 GR | GR value (THZ531; 0.0001 µM): 1.09 GR | GR value (THZ531; 0.0003162 µM): 1.17 GR | GR value (THZ531; 0.001 µM): 0.736 GR | GR value (THZ531; 0.003162 µM): 1.06 GR | GR value (THZ531; 0.01 µM): 1.32 GR | GR value (THZ531; 0.03162 µM): 0.538 GR | GR value (THZ531; 0.1 µM): -0.928 GR | GR value (THZ531; 0.3162 µM): -0.947 GR | GR value (THZ531; 1 µM): -0.909 GR | GR value (Flavopiridol [3]; 0.0001 µM): 1.11 GR | GR value (Flavopiridol [3]; 0.0003162 µM): 1.12 GR | GR value (Flavopiridol [3]; 0.001 µM): 0.95 GR | GR value (Flavopiridol [3]; 0.003162 µM): 0.74 GR | GR value (Flavopiridol [3]; 0.01 µM): 0.921 GR | GR value (Flavopiridol [3]; 0.03162 µM): 0.947 GR | GR value (Flavopiridol [3]; 0.1 µM): 0.503 GR | GR value (Flavopiridol [3]; 0.3162 µM): -0.521 GR | GR value (Flavopiridol [3]; 1 µM): -0.945 GR | GR value ([4]; 0.001 µM): 1.06 GR | GR value ([4]; 0.003162 µM): 1.17 GR | GR value ([4]; 0.01 µM): 1.15 GR | GR value ([4]; 0.03162 µM): 1.12 GR | GR value ([4]; 0.1 µM): 0.975 GR | GR value ([4]; 0.3162 µM): 1.03 GR | GR value ([4]; 1 µM): 0.836 GR | GR value ([4]; 3.162 µM): 0.308 GR | GR value ([4]; 10 µM): -0.466 GR | GR value (LEE011/Ribociclib; 0.001 µM): 1.21 GR | GR value (LEE011/Ribociclib; 0.003162 µM): 1.13 GR | GR value (LEE011/Ribociclib; 0.01 µM): 1.08 GR | GR value (LEE011/Ribociclib; 0.03162 µM): 1.21 GR | GR value (LEE011/Ribociclib; 0.1 µM): 0.945 GR | GR value (LEE011/Ribociclib; 0.3162 µM): 0.964 GR | GR value (LEE011/Ribociclib; 1 µM): 0.894 GR | GR value (LEE011/Ribociclib; 3.162 µM): 0.89 GR | GR value (LEE011/Ribociclib; 10 µM): 1.33 GR | GR value ([5]; 0.0001 µM): 0.917 GR | GR value ([5]; 0.0003162 µM): 1.1 GR | GR value ([5]; 0.001 µM): 1.09 GR | GR value ([5]; 0.003162 µM): 1.04 GR | GR value ([5]; 0.01 µM): 0.584 GR | GR value ([5]; 0.03162 µM): -0.846 GR | GR value ([5]; 0.1 µM): -0.927 GR | GR value ([5]; 0.3162 µM): -0.951 GR | GR value ([5]; 1 µM): -0.949 GR
